{"source": "patent US20090149417A1", "about": "“Methods and compositions for the treatment of cancer using benzopyrone-type PARP inhibitors” (priority 2007, published 2009)", "key": {"[1]": {"tested_on": "Colo375FG metastatic pancreatic adenocarcinoma cells", "assay": "Bromodeoxyuridine (BrdU) labeling assay (flow cytometry)", "format": "cell-based, human", "experimental": "50 μl of BrdU (Sigma Chemical Co., St. Louis, Mo.) stock solution (1 mM) is added to give 10 μM BrdU final concentration. The cells are incubated for 30 min at 37° C. and fixed in ice-cold 70% ethanol and stored in a cold room (4° C.) overnight. Fixed cells are centrifuged and washed once in 2 ml PBS, then resuspended in 0.7 ml of denaturation solution (0.2 mg/ml pepsin in 2 N HCl) for 15 min at 37° C. in the dark and suspended with 1.04 ml 1M Tris buffer (Trizma base, Sigma Chemical Co.) to terminate the hydrolysis and washed in 2 ml PBS.\n(§1) Cells are resuspended in 100-μl anti-BrdU antibody (DakoCytomation, Carpinteria, Calif.) with 1:100 dilution in TBFP permeable buffer (0.5% Tween-20, 1% bovine serum albumin and 1% fetal bovine serum in PBS) and incubated for 25 min at room temperature in the dark and washed in 2 ml PBS. The primary antibody-labeled cells are resuspended in 100 μl Alexa Fluor F(ab′)2 fragment of goat anti-mouse IgG (H+L) (2 mg/mL) (Molecular Probes, Eugene, Oreg.) with 1:200 dilution in TBFP permeable buffer and incubated for 25 min at room temperature in the dark and washed in 2 ml PBS, then resuspended in 0.5 ml ice-cold PBS containing 1 μg/ml 4′,6-diamidino-2-phenylindole (DAPI) for at least 30 min. All cell samples are analyzed with a BD LSR II (BD Biosciences, San Jose, Calif.).\nas §1, with “50 μl of BrdU (Sigma Chemical Co., St. Louis, Mo.) stock solution (1 mM) is added to give 10 μM BrdU final concentration. The cells are incubated for 30 min at 37 °C and fixed in ice-cold 70% ethanol and stored in a cold room (4 °C) overnight. Fixed cells are centrifuged and washed once in 2 ml PBS, then resuspended in 0.7 ml of denaturation solution (0.2 mg/ml pepsin in 2 N HCl) for 15 min at 37° C. in the dark and suspended with 1.04 ml 1M Tris buffer (Trizma base, Sigma Chemical Co.) and washed in 2 ml PBS. Then cells” for “Cells”"}, "PARP1+/+A16 fibroblasts": {"tested_on": "PARP1+/+A16 fibroblasts", "assay": "Proliferation by BrdU incorporation", "format": "cell-based", "conditions": "wildtype fibroblasts; single agent", "experimental": "(§2) Proliferation of various tumor cell lines including uterine cancer Hela cells, lung carcinoma A549 cells, PARP1+/+A16 and PARP1−/− A12 fibroblasts, and several human pancreatic tumor cell lines, COLO357FG, MiaPaCa-2, AsPC-1, L3.6pl, and Panc28, is measured by BrdU incorporation. In some experiments, tumor cell proliferation is measured after 96 hours. The concentration of IIIg is titrated to show the effect of IIIg on tumor cell growth in vitro.\n(§3) BrdU assay is well known in the art. Briefly, cells are cultured in the presence of the respective test substances in an appropriate 96-well MP at 37° C. for a certain period of time (1 to 5 days, depending on the individual assay system). Subsequently, BrdU is added to the cells and the cells are reincubated (usually 2-24 h). During this labeling period, the pyrimidine analogue BrdU is incorporated in place of thymidine into the DNA of proliferating cells. After removing the culture medium the cells are fixed and the DNA is denatured in one step by adding FixDenat (the denaturation of the DNA is necessary to improve the accessibility of the incorporated BrdU for detection by the antibody). The anti-BrdU-POD antibody is added and the antibody binds to the BrdU incorporated in newly synthesized, cellular DNA. The immune complexes are detected by the subsequent substrate reaction via chemiluminescent detection (based on Cell Proliferation ELISA, BrdU Chemiluminescence Protocol from Roche).\n(§4) Experiments and analyses are performed according to Shaw G and Prowse DM, “Inhibition of androgen-independent prostate cancer cell growth is enhanced by combination therapy targeting Hedgehog and ErbB signaling” Cancer Cell Int. 2008 Mar. 18; 8:3."}, "PARP1−/− A12 fibroblasts": {"tested_on": "PARP1−/− A12 fibroblasts", "assay": "Proliferation by BrdU incorporation", "format": "cell-based", "conditions": "PARP-1−/− fibroblasts; single agent", "experimental": "as §2, §3, §4"}, "[2]": {"tested_on": "human pancreatic tumor cell lines, COLO357FG, MiaPaCa-2, AsPC-1, L3.6pl, and Panc28", "assay": "Proliferation by BrdU incorporation", "format": "cell-based", "conditions": "single agent", "experimental": "as §2, §3, §4"}, "[3]": {"tested_on": "human tumor cells including pancreatic, breast, uterine, lung, prostate, and ovarian cancer cells", "assay": "Proliferation of human tumor cells in vitro (summary)", "format": "cell-based"}}}
{"compound": "O=c1ccc2c(I)c([N+](=O)[O-])ccc2o1", "note": "[IIIg, 5-iodo-6-nitro-benzopyrone]", "values": [{"measurement": "S-phase % BrdU+", "setting": "[1]; IIIg 2.5 μM, OxaliPt 0 μM", "value": 94.89, "unit": "%"}, {"measurement": "S-phase % BrdU+", "setting": "[1]; IIIg 12.5 μM, OxaliPt 0 μM", "value": 93.1, "unit": "%"}, {"measurement": "S-phase % BrdU+", "setting": "[1]; IIIg 25 μM, OxaliPt 0 μM", "value": 75.18, "unit": "%"}, {"measurement": "Proliferation (percentage of BrdU positive cells)", "setting": "[1]; combination of IIIg and oxaliplatin", "value": "inhibits the proliferation"}, {"measurement": "S-phase % BrdU+", "setting": "[1]; combination: IIIg 2.5 μM + OxaliPt 10 μM", "value": 86.3, "unit": "%"}, {"measurement": "S-phase % BrdU+", "setting": "[1]; combination: IIIg 2.5 μM + OxaliPt 20 μM", "value": 65.32, "unit": "%"}, {"measurement": "S-phase % BrdU+", "setting": "[1]; combination: IIIg 12.5 μM + OxaliPt 10 μM", "value": 67.5, "unit": "%"}, {"measurement": "S-phase % BrdU+", "setting": "[1]; combination: IIIg 12.5 μM + OxaliPt 20 μM", "value": 33, "unit": "%"}, {"measurement": "S-phase % BrdU+", "setting": "[1]; combination: IIIg 25 μM + OxaliPt 10 μM", "value": 24.69, "unit": "%"}, {"measurement": "S-phase % BrdU+", "setting": "[1]; combination: IIIg 25 μM + OxaliPt 20 μM", "value": 33.85, "unit": "%"}, {"measurement": "Cell growth", "setting": "PARP1+/+A16 fibroblasts", "value": "selectively inhibits the growth of wildtype"}, {"measurement": "Cell growth", "setting": "PARP1−/− A12 fibroblasts", "value": "not PARP-1−/− fibroblasts"}, {"measurement": "Cell growth", "setting": "[2]", "value": "significantly inhibits cell growth"}, {"measurement": "Proliferation of human tumor cells", "setting": "[3]", "value": "inhibits the proliferation"}]}
{"compound": "O=C1[O][Pt]2([NH][C@@H]3CCCC[C@H]3[NH]2)[O]C1=O", "note": "[OxaliPt, oxaliplatin, reference compound]", "values": [{"measurement": "Cells in S-phase of cell cycle (% BrdU+)", "setting": "[1]; Compound IIIc 0 mM, OxaliPt 10 mM", "value": 81.74, "unit": "%"}, {"measurement": "S-phase % BrdU+", "setting": "[1]; IIIg 0 μM, OxaliPt 10 μM", "value": 81.74, "unit": "%"}, {"measurement": "S-phase % BrdU+", "setting": "[1]; IIIg 0 μM, OxaliPt 20 μM", "value": 63.12, "unit": "%"}]}
